Results on two compounds are retold here after patent US5877185A, “Synergistic compositions useful as anti-tumor agents” (priority 1995, dated 1999).

Molecules are shown by their SMILES. Read-outs that look alike come from different tables or passages of the source. Some results are limits rather than exact numbers.

Data set [1] deals with MT-2 cells. In words: effectiveness on human T-lymphoblastoid leukemia cells, MT-2. Format: cell-based. As to the method:
IV. Effectiveness of 4-(halogen)-3-nitro-benzamide compounds as tested with human T-lymphoblastoid leukemia cell lines in culture.
Cells (MT-2 cells, or, in case of 3-fluoro-4-nitro-benzamide, CEM-4 cells) were seeded at a density of 0.1×10^5 /ml; the drugs were added at the time of seeding. The cultures were incubated at 37° C. in a 5% CO2 atmosphere and the cells numbers were monitored by hemacytometer counting in 24 hr intervals.

In data set [2] the test system is E ras cells. In words: cytostatic and cytocidal activity. Format: cell-based, bovine. As to conditions: Bos taurus, average of three trials. From the text: pADPRT ligands that oxidize CCHC zinc fingers are not unique inhibitors of pADPRT. […] Hakam et al., FEBS Lett. 193:1-4 (1991). These ligands bind non-covalently to the nicotinamide site and internal DNA-seeking domains of pADPRT. Bauer et al., manuscript in preparation (1994). In contrast, CCHC-oxidizing ligands also bind non-covalently to the nicotinamide site, but initially attack the F1 zinc finger oxidatively. Id. […] Id. […] U.S. Ser. No. 08/076,313 filed Jun. 11, 1993.
Each value is the average of three trials. Each trial deviated from the average by no more than twenty percent. […] Another isomer of the iodo-nitro-benzamide series, 2-iodo-4-nitrobenzamide had no effect at the concentrations given above.

Data set [3] has as its system MCF-7. In words: cytotoxicity of INO2 BA with and without BSO, MCF-7. Format: cell-based. Conditions: Homo sapiens. As to the method: (§1) The concentration of BSO was 1 mM for all cell lines except HT 144, where the concentration was 0.25 mM. Cells were seeded in the recommended growth medium at a density of 1.5×10^4 cell/cm^2 into 2 cm^2 wells. Drugs were added simultaneously 4 hours after seeding, and incubation was continued for 48 hours at 37° C. in a 5% CO2 atmosphere. For assessment of drug effects cells were detached by trypsinization and counted in a hemacytometer.
(§2) Cell lines Nos. 1-4 were obtained from Dr. C. Benz, University of California, San Francisco. MDA 468 and MCF-7 human mammary cancer lines, MCF-7-B-ADR drug-resistant mammary cancer line, Du 145 drug-resistant human prostate cancer line, HT 144 human melanoma cell line, Hep-G2 human hepatocellular carcinoma line, and PC-12 rat pheochromocytoma line were obtained from the University of California Cell Culture Facility.

Data set [4] deals with MCF-7-B-ADR. In words: cytotoxicity of INO2 BA with and without BSO, MCF-7-B-ADR. It counts as cell-based. Conditions: Homo sapiens. As to the method: as §1, §2
For data set [5], the system named is HL 60. In words: cytotoxicity of INO2 BA with and without BSO, HL 60. It counts as cell-based. As to conditions: Homo sapiens, INO2 BA alone, 48 hours. As to the method:
as §1, §2

Data set [6] has as its system SIV 23686 (AZT-resistant). In words: AZT-resistant SIV propagation (syncytia formation), SIV 23686. Format: cell-based. As to conditions: for Syncytia: BSO 0. As to the method:
CEM × 174 (3 × 10^5 /ml) were infected with equal doses o
SIVmac239 or virus isolates from SIVmac239infected rhesus macaques (MMU
23686, 22803). Three days postinfection, INO2 BA concentrations
ranging from 0 to 300 μM with or without BSO were added, and incubated
for an additional 3 days. Cell cultures were then examined for syncytia
formation. The number of syncytia in cell cultures was counted in
arbitration fields under 40× magnification and scored as follows: […]

For data set [7], the system named is L 1210 cells. In words: cytotoxic effect of IABP and INO2 BA, alone and combined, on L 1210 cell growth. It counts as cell-based, murine. Conditions: Mus musculus, L1210, 72 h; INO2 BA 64 μM, three days; read-out: decrease of L 1210 cell proliferation. As to the method: 64 μM INO2 BA decreased L 1210 cell proliferation by approximately 80% over a three day growth period.

For data set [8], the system named is neutrophil granulocytes. As to conditions: tumoricidal concentrations; cited from earlier work.

In the case of `NC(=O)c1ccc(I)c([N+](=O)[O-])c1` [INO2 BA, 4-iodo-3-nitrobenzamide], the IC50 in data set [1] (Homo sapiens, MT2, concentration decreasing cell viability to 50% of control, 48 h incubation, read-out: I50) turned out to be 70 µM; in data set [2] (E ras cells, read-out: Cytostatic Effect I50), 60 µM; in data set [2] (with 0.8 mM BSO, read-out: Cytocidal Effect I50), 4 µM; in data set [3] (MCF7, INO2 BA alone, 48 hours, read-out: I50), 100 µM; in data set [4] (INO2 BA alone, 48 hours, read-out: I50), 90 µM; in data set [5] (read-out: I50) it was 70 µM. In data set [1] (zero viability after 48 hours of incubation), this compound had an LD100 of 190. Besides, the IC100 in data set [3] (MCF7, 48 h, read-out: LD100) is 200 µM; in data set [4] (48 h, read-out: LD100) it was 220 µM; in data set [5] (read-out: LD100), 125 µM; in data set [6] (Simian immunodeficiency virus, 72 h, read-out: INO2 BA concentration abolishing cell fusion (syncytia)), greater than 200 µM. The Syncytia entry is reported as “++ (10-20)” in data set [6] (INO2 BA 25 μM); “++ (10-20)” in data set [6] (INO2 BA 50 μM); “++ (10-20)” in data set [6] (INO2 BA 100 μM); “+ (1-9)” in data set [6] (INO2 BA 200 μM); “- (0)” in data set [6] (INO2 BA 300 μM). Besides, the “inhibitory concentration of INO2 BA (syncytia)” value in data set [6] (with 0.01 mM BSO) came to 50 µM. The inhibition at 64 µM in data set [7] is roughly 80%.
As to `NC(=O)c1cccc(N=O)c1` [NOBA, 3-nitrosobenzamide], the “effect on superoxide formation by neutrophil granulocytes” value in data set [8] is listed as “relatively harmless”.
